Target: human APJ receptor (Homo sapiens (Human), UniProt P35414)
Assay: [35S]GTPγS binding assay on membranes from CHO cells stably expressing human APJ receptor
Assay type: biochemical
Conditions: read-out: Activity hAPJ SPA EC50 IP
Outline: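 Membranes from CHO cells stably expressing human APJ incubated with ligand, 0.2 nM [35S]GTPγS and WGA SPA beads in HEPES pH 7.5 with 5 mM MgCl2, 200 mM NaCl, 3 μM GDP, 90 min at RT. Nonspecific binding defined with 100 μM GTPγS; EC50 by non-linear regression.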

Sequence of human APJ receptor (P35414 whole entry): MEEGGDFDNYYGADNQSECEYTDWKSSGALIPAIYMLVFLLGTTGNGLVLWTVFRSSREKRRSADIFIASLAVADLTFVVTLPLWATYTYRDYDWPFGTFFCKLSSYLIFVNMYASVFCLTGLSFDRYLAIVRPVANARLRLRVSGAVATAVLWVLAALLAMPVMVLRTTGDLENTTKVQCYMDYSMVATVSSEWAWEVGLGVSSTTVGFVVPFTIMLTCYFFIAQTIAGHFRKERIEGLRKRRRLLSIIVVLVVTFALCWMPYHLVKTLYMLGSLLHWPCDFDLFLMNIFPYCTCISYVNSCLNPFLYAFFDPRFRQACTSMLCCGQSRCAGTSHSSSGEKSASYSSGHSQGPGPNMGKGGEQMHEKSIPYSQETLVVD

With `COCC(COC)n1c(NS(=O)(=O)[C@@H](C)[C@@H](OC(C)C)c2ncc(Cl)cn2)nnc1[C@@H]1COCCO1` (single isomer, unassigned) [Example 356.0, (1S,2S)-1-(5-chloro-2-pyrimidinyl)-N-(4-(1,3-dimethoxy-2-propanyl)-5-((2R)-1,4-dioxan-2-yl)-4H-1,2,4-triazol-3-yl)-1-(2-propanyloxy)-2-propanesulfonamide or (1S,2S)-1-(5-chloro-2-pyrimidinyl)-N-(4-(1,3-dimethoxy-2-propanyl)-5-((2S)-1,4-dioxan-2-yl)-4H-1,2,4-triazol-3-yl)-1-(2-propanyloxy)-2-propanesulfonamide] the EC50 was 26 nM.
Compound `COCC(COC)n1c(NS(=O)(=O)[C@@H](C)[C@@H](OC(C)C)c2ncc(Cl)cn2)nnc1[C@@H]1COCCO1` (single isomer, unassigned) [Example 357.0, (1S,2S)-1-(5-chloro-2-pyrimidinyl)-N-(4-(1,3-dimethoxy-2-propanyl)-5-((2R)-1,4-dioxan-2-yl)-4H-1,2,4-triazol-3-yl)-1-(2-propanyloxy)-2-propanesulfonamide or (1S,2S)-1-(5-chloro-2-pyrimidinyl)-N-(4-(1,3-dimethoxy-2-propanyl)-5-((2S)-1,4-dioxan-2-yl)-4H-1,2,4-triazol-3-yl)-1-(2-propanyloxy)-2-propanesulfonamide] has an EC50 of 280 nM.
In the case of `COc1ncnc(OC)c1-n1c(NS(=O)(=O)[C@@H](C)[C@H](C)c2ccc(C#N)cn2)nnc1[C@H]1CCOC1` (single isomer, unassigned) [Example 382.0, (2S,3R)-3-(5-cyano-2-pyridinyl)-N-(4-(4,6-dimethoxy-5-pyrimidinyl)-5-((3R)-tetrahydro-3-furanyl)-4H-1,2,4-triazol-3-yl)-2-butanesulfonamide or (2S,3R)-3-(5-cyano-2-pyridinyl)-N-(4-(4,6-dimethoxy-5-pyrimidinyl)-5-((3S)-tetrahydro-3-furanyl)-4H-1,2,4-triazol-3-yl)-2-butanesulfonamide], the EC50 is reported as 270 nM.
`COc1ncnc(OC)c1-n1c(NS(=O)(=O)[C@@H](C)[C@H](C)c2ccc(C#N)cn2)nnc1[C@H]1CCOC1` (single isomer, unassigned) [Example 383.0, (2S,3R)-3-(5-cyano-2-pyridinyl)-N-(4-(4,6-dimethoxy-5-pyrimidinyl)-5-((3R)-tetrahydro-3-furanyl)-4H-1,2,4-triazol-3-yl)-2-butanesulfonamide or (2S,3R)-3-(5-cyano-2-pyridinyl)-N-(4-(4,6-dimethoxy-5-pyrimidinyl)-5-((3S)-tetrahydro-3-furanyl)-4H-1,2,4-triazol-3-yl)-2-butanesulfonamide] gave an EC50 of 680 nM.
`COc1cccc(OC)c1-n1c(NS(=O)(=O)CCc2ncc(Cl)cn2)nnc1[C@H]1CCOC1` (single isomer, unassigned) [Example 390.0] was tested, and the EC50 was 330 nM.
Work on `COc1cccc(OC)c1-n1c(NS(=O)(=O)[C@@H](C)[C@H](C)c2ncc(Cl)cn2)nnc1[C@@H]1COC(C)(C)C1` (single isomer, unassigned) [Example 393.0, (2S,3R)-3-(5-chloro-2-pyrimidinyl)-N-(4-(2,6-dimethoxyphenyl)-5-((3R)-5,5-dimethyltetrahydro-3-furanyl)-4H-1,2,4-triazol-3-yl)-2-butanesulfonamide or (2S,3R)-3-(5-chloro-2-pyrimidinyl)-N-(4-(2,6-dimethoxyphenyl)-5-((3S)-5,5-dimethyltetrahydro-3-furanyl)-4H-1,2,4-triazol-3-yl)-2-butanesulfonamide] yielded an EC50 of 18 nM.
With `COc1cccc(OC)c1-n1c(NS(=O)(=O)[C@@H](C)[C@H](C)c2ncc(Cl)cn2)nnc1[C@@H]1COC(C)(C)C1` (single isomer, unassigned) [Example 394.0, (2S,3R)-3-(5-chloro-2-pyrimidinyl)-N-(4-(2,6-dimethoxyphenyl)-5-((3R)-5,5-dimethyltetrahydro-3-furanyl)-4H-1,2,4-triazol-3-yl)-2-butanesulfonamide or (2S,3R)-3-(5-chloro-2-pyrimidinyl)-N-(4-(2,6-dimethoxyphenyl)-5-((3S)-5,5-dimethyltetrahydro-3-furanyl)-4H-1,2,4-triazol-3-yl)-2-butanesulfonamide] the EC50 was 20 nM.
`COc1cccc(OC)c1-n1c(NS(=O)(=O)[C@@H](C)[C@H](C)c2ncc(F)cn2)nnc1[C@@H]1COC(C)(C)C1` (single isomer, unassigned) [Example 395.0, (2S,3R)-N-(4-(2,6-dimethoxyphenyl)-5-((3R)-5,5-dimethyltetrahydro-3-furanyl)-4H-1,2,4-triazol-3-yl)-3-(5-fluoro-2-pyrimidinyl)-2-butanesulfonamide or (2S,3R)-N-(4-(2,6-dimethoxyphenyl)-5-((3S)-5,5-dimethyltetrahydro-3-furanyl)-4H-1,2,4-triazol-3-yl)-3-(5-fluoro-2-pyrimidinyl)-2-butanesulfonamide] showed an EC50 of 67 nM.
`COc1cccc(OC)c1-n1c(NS(=O)(=O)[C@@H](C)[C@H](C)c2ncc(F)cn2)nnc1[C@@H]1COC(C)(C)C1` (single isomer, unassigned) [Example 396.0, (2S,3R)-N-(4-(2,6-dimethoxyphenyl)-5-((3R)-5,5-dimethyltetrahydro-3-furanyl)-4H-1,2,4-triazol-3-yl)-3-(5-fluoro-2-pyrimidinyl)-2-butanesulfonamide or (2S,3R)-N-(4-(2,6-dimethoxyphenyl)-5-((3S)-5,5-dimethyltetrahydro-3-furanyl)-4H-1,2,4-triazol-3-yl)-3-(5-fluoro-2-pyrimidinyl)-2-butanesulfonamide] showed an EC50 of 58 nM.
For `COc1cccc(OC)c1-n1c(NS(=O)(=O)[C@@H](C)[C@H](OC)c2ncc(Cl)cn2)nnc1[C@H]1CCC(=O)N1` (single isomer, unassigned) [Example 397.0, (1R,2S)-1-(5-chloro-2-pyrimidinyl)-N-(4-(2,6-dimethoxyphenyl)-5-((2R)-5-oxo-2-pyrrolidinyl)-4H-1,2,4-triazol-3-yl)-1-methoxy-2-propanesulfonamide or (1R,2S)-1-(5-chloro-2-pyrimidinyl)-N-(4-(2,6-dimethoxyphenyl)-5-((2S)-5-oxo-2-pyrrolidinyl)-4H-1,2,4-triazol-3-yl)-1-methoxy-2-propanesulfonamide], the EC50 was 160 nM.
`COc1cccc(OC)c1-n1c(NS(=O)(=O)[C@@H](C)[C@H](OC)c2ncc(Cl)cn2)nnc1[C@H]1CCC(=O)N1` (single isomer, unassigned) [Example 398.0, (1R,2S)-1-(5-chloro-2-pyrimidinyl)-N-(4-(2,6-dimethoxyphenyl)-5-((2R)-5-oxo-2-pyrrolidinyl)-4H-1,2,4-triazol-3-yl)-1-methoxy-2-propanesulfonamide or (1R,2S)-1-(5-chloro-2-pyrimidinyl)-N-(4-(2,6-dimethoxyphenyl)-5-((2S)-5-oxo-2-pyrrolidinyl)-4H-1,2,4-triazol-3-yl)-1-methoxy-2-propanesulfonamide] gave an EC50 of 560 nM.
`COc1cccc(OC)c1-n1c(NS(=O)(=O)[C@@H](C)[C@@H](OC(C)C)c2ncc(Cl)cn2)nnc1[C@H]1CCC(=O)N1` (single isomer, unassigned) [Example 399.0, (1S,2S)-1-(5-chloro-2-pyrimidinyl)-N-(4-(2,6-dimethoxyphenyl)-5-((2R)-5-oxo-2-pyrrolidinyl)-4H-1,2,4-triazol-3-yl)-1-(2-propanyloxy)-2-propanesulfonamide or (1S,2S)-1-(5-chloro-2-pyrimidinyl)-N-(4-(2,6-dimethoxyphenyl)-5-((2S)-5-oxo-2-pyrrolidinyl)-4H-1,2,4-triazol-3-yl)-1-(2-propanyloxy)-2-propanesulfonamide] was tested, and the EC50 was 470 nM.
`COc1cccc(OC)c1-n1c(NS(=O)(=O)[C@@H](C)[C@@H](OC(C)C)c2ncc(Cl)cn2)nnc1[C@H]1CCC(=O)N1` (single isomer, unassigned) [Example 400.0, (1S,2S)-1-(5-chloro-2-pyrimidinyl)-N-(4-(2,6-dimethoxyphenyl)-5-((2R)-5-oxo-2-pyrrolidinyl)-4H-1,2,4-triazol-3-yl)-1-(2-propanyloxy)-2-propanesulfonamide or (1S,2S)-1-(5-chloro-2-pyrimidinyl)-N-(4-(2,6-dimethoxyphenyl)-5-((2S)-5-oxo-2-pyrrolidinyl)-4H-1,2,4-triazol-3-yl)-1-(2-propanyloxy)-2-propanesulfonamide] was tested, and the EC50 was 330 nM.
`CO[C@H](c1ncc(Cl)cn1)[C@H](C)S(=O)(=O)Nc1nnc([C@H]2CCOC2)n1Cc1ccon1` (single isomer, unassigned) [Example 401.0, (1R,2S)-1-(5-chloro-2-pyrimidinyl)-1-methoxy-N-(4-(1,2-oxazol-3-ylmethyl)-5-((3R)-tetrahydro-3-furanyl)-4H-1,2,4-triazol-3-yl)-2-propanesulfonamide or (1R,2S)-1-(5-chloro-2-pyrimidinyl)-1-methoxy-N-(4-(1,2-oxazol-3-ylmethyl)-5-((3S)-tetrahydro-3-furanyl)-4H-1,2,4-triazol-3-yl)-2-propanesulfonamide] showed an EC50 of 100 nM.
In the case of `CO[C@H](c1ncc(Cl)cn1)[C@H](C)S(=O)(=O)Nc1nnc([C@H]2CCOC2)n1Cc1ccon1` (single isomer, unassigned) [Example 402.0, (1R,2S)-1-(5-chloro-2-pyrimidinyl)-1-methoxy-N-(4-(1,2-oxazol-3-ylmethyl)-5-((3R)-tetrahydro-3-furanyl)-4H-1,2,4-triazol-3-yl)-2-propanesulfonamide or (1R,2S)-1-(5-chloro-2-pyrimidinyl)-1-methoxy-N-(4-(1,2-oxazol-3-ylmethyl)-5-((3S)-tetrahydro-3-furanyl)-4H-1,2,4-triazol-3-yl)-2-propanesulfonamide], the EC50 is reported as 410 nM.
